According to ChEMBL document CHEMBL4414660, “Effect of Modifier Structure on the Activation of Leukotriene A4 Hydrolase Aminopeptidase Activity” (J Med Chem, 2019):

What was measured:
[1] = molecular target: T1, Leukotriene A-4 hydrolase (Homo sapiens, UniProt P09960); test: Activation of N-terminal (His)6 and Xpress-tagged LTA4H (unknown origin) expressed in Escherichia coli BL21(DE3) cells assessed as increase in aminopeptidase activity by measuring p-nitroanilide release using L-Alanine-p-nitroanilide incubated for 10 mins by UV plate reader based assay
T1 sequence (P09960 whole entry): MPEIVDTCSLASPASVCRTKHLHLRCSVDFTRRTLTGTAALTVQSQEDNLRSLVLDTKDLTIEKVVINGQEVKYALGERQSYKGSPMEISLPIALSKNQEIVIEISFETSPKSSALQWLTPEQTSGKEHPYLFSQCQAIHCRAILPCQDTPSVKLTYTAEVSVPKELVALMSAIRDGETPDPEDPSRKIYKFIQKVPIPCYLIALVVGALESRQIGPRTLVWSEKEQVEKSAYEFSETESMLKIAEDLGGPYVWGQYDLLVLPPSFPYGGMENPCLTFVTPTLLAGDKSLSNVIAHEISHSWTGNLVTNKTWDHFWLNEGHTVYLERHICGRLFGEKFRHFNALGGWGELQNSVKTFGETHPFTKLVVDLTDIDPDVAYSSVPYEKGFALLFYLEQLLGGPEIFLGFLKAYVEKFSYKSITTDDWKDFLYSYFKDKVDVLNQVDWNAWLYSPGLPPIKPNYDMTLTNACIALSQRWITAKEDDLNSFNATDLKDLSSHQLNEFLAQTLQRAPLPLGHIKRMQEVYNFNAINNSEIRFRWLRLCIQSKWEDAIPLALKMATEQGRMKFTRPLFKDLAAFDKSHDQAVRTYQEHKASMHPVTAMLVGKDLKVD

[2] = molecular target: T2, Leukotriene A-4 hydrolase (Homo sapiens) (UniProt P09960); test: (§1) Activation of N-terminal (His)6 and Xpress-tagged LTA4H (unknown origin) expressed in Escherichia coli BL21(DE3) cells assessed as increase in aminopeptidase activity by measuring factor by which activator affects catalytic constant for hyperbolic mixed predominantly catalytic activation using L-Alanine-p-nitroanilide incubated for 10 mins by p-nitroanilide release detection based UV plate reader based assay
T2 sequence (whole entry): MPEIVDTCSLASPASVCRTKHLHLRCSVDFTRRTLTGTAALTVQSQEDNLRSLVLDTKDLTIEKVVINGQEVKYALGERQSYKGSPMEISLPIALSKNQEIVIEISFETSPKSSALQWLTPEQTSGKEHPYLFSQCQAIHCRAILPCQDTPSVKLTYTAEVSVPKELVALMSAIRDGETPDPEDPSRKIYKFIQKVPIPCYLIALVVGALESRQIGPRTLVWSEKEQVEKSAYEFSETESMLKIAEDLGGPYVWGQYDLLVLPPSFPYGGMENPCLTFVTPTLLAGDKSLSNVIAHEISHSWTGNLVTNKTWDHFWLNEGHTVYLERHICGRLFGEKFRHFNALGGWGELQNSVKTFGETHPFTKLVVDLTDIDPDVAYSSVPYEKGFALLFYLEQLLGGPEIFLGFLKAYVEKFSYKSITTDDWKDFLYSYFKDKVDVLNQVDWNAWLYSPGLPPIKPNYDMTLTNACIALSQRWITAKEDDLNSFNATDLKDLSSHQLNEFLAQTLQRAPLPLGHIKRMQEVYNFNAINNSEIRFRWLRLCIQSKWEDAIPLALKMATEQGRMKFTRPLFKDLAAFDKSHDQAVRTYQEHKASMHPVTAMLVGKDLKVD

[3] = molecular target: T2, Leukotriene A-4 hydrolase (Homo sapiens); test: as §1, with “reciprocal allosteric coupling” for “factor by which activator affects catalytic”
[4] = molecular target: T2, Leukotriene A-4 hydrolase (Homo sapiens); test: as §1, with “dissociation” for “factor by which activator affects catalytic”, “constant (KX)” for “constant”

SMILES	AC50 [1] [nM]	fold change (FC) [2]	K [3]	K [4] [µM]
Cc1cccc(Cc2ccc(-c3csc(N)n3)cc2)c1	4810	–	–	–
Nc1nc(-c2ccc(Cc3ccccc3)cc2)cs1	240	25.4	0.82	1.35
